{
  "source": "patent US10426785B2",
  "about": "“C-19 steroids for inhibiting neovascularization” (priority 2014, dated 2019)",
  "format_in_all_cases": "cell-based, human",
  "key": {"HUVEC cells [1]": {"test_system": "HUVEC cells", "assay": "WST-1 proliferation assay of HUVEC cells", "conditions": "1, 2 and 5 μM; all 3 HUVEC cell cultures; p<0.001 (t-test); FIG. 1A", "description": "All experiments were additionally run in several replicates (one HUVEC in different passages as well as different preparations.\nFor determining the proliferation rates, WST-1 tests were performed. Essentially, 1000 HUVEC cells/well were seeded in a 96-well plate and exposed to the indicated concentrations of 4-OHT (also denoted by lab code CR 1447) for 5 days. Inhibition of proliferation was quantified by measuring the enzymatic cleavage of the tetrazolium salt WST-1 to formazan by cellular mitochondrial dehydrogenases as a readout for cell viability, wherein cell viability of treated cells is expressed as the percentage (%) of untreated controls containing only the solvent in appropriate concentrations.\nCells were grown and subcultured in Endothelial Cell Growth medium (EGM) for 3 and 5 days, respectively."}, "HUVEC cells [2]": {"test_system": "HUVEC cells", "assay": "Tube migration (tube formation) assay of HUVEC cells on matrigel", "conditions": "HUVEC on matrigel (7 mg/ml), 10 μM/L, FIG. 4", "procedure": "(§1) Briefly, human umbilical vein endothelial cells (in the following HUVEC) were freshly isolated out of human umbilical cords by methods known in the art and were used in the experiments from passage p4 up to passage p10 to prevent any artefacts originating from in vitro changes of the cells.\n(§2) In all experiments, the C-19 steroid compound 4-OHT was added to the cells in the indicated concentration in EGM-2 medium (Lonza) in order to avoid any artefacts originating from exogenous factors contained in the medium.\nAfter migration into the tissue of a scratch, HUVEC cells change their growth characteristics and form microvessels. This effect can be assessed microscopically.\nHUVEC cells were seeded on matrigel (7 mg/ml). Cell suspensions as well as gels containing 10 μM/L 4-OHT were added upon seeding, It was allowed to form branching points during adherence onto this surface mimicking basal membrane character. Tube formation was analyzed microscopically after 12 and 48 hours.\nWhen the human endothelial cells were subjected onto matrigel pads, branching points as one marker of tube formation are inhibited by 4-OHT as compared to untreated controls (red arrows)."}, "HUVEC cells [3]": {"test_system": "HUVEC cells", "assay": "Transwell migration assay of HUVEC cells with VEGF as attractant", "conditions": "48 hrs, VEGF as attractant in lower chamber, compared to control, FIG. 2B", "procedure": "as §1, §2\nA prerequisite of angiogenesis is the capability of endothelial cells to migrate into the tissue. This process is observed in wound healing and also in the process of tumor growth. Endothelial cells migrate into the tissue along a gradient of factors such as VEGF. This behavior can be studied in an in vitro model of migration using a transwell system, as e.g. apparent from FIG. 2A.\nFor studying the migration of HUVEC cells using the transwell system with PET-membranes having a 3 μm pore size (24-wells w/o fibronectin-coating), HUVEC cells in different cell numbers were placed in the upper compartment, whereas the attractant was placed in the lower compartment. The number of cells on the attractant site of the membrane was compared with the number of cells visible in a control system (buffer control) and with the attractant (VEGF) in the presence of 4-OHT. […]"}, "HUVEC cells [4]": {"test_system": "HUVEC cells", "assay": "Wound healing (scratch) assay of HUVEC cells", "conditions": "10 μM, FIG. 3", "procedure": "as §1, §2\nAnother method for studying cell migration is the wound healing (scratch) assay. This assay resembles the events occurring in an acute wound healing process. By release of factors from the wound area endothelial cells migrate into the scratch area, which shall resemble the process of healing and closure of the wound by vascularization and later scar formation.\nIn summary, HUVEC cells were seeded in a 12-well plate and allow to grow until reaching confluency. Subsequently, a scratch was set, thereby removing the cells within the scratch area. The cells were exposed to 10 μM of 4-OHT and the migration of endothelial cells into the scratch area was monitored microscopically using a schedule from 2 up to 48 hrs, depending on the individual experimental design. […]"}},
  "data": [
    {"molecule": "C[C@]12CC[C@H]3[C@@H](CCC4=C(O)C(=O)CC[C@@]43C)[C@@H]1CC[C@@H]2O", "note": "[4-OHT, 4-hydroxytestosterone]", "values": [
      {"measurement": "growth inhibition (WST-1 cell viability vs untreated controls)", "setting": "HUVEC cells [1]", "result": "highly significant"},
      {"measurement": "tube formation of human endothelial cells", "setting": "HUVEC cells [2]; analyzed after 12 and 48 hours", "result": "significantly inhibited"},
      {"measurement": "branching of the cells (branching points as marker of tube formation)", "setting": "HUVEC cells [2]; compared to untreated controls", "result": "markedly inhibited"},
      {"measurement": "migration of cells into the membrane (transwell)", "setting": "HUVEC cells [3]", "result": "significantly inhibits"},
      {"measurement": "migration of HUVEC cells into the scratch area compared to untreated control cells", "setting": "HUVEC cells [4]; after 24 h", "result": "clear reduction"},
      {"measurement": "endothelial cell migration (wound-healing / scratch assay)", "setting": "HUVEC cells [4]; monitored 2 up to 48 hrs", "result": "effectively inhibited"}
    ]}
  ]
}
